Test results: the NIST ThermoML archive (doi:10.1021/acs.jced.7b00898)

Test: xn = mol fraction of the nth substance listed
Conditions: 100 kPa, Liquid; for electrical conductivity: Alternating current cell with electrodes; for viscosity: Falling or rolling sphere viscometry; for mass density: Vibrating tube method

C[n+]1ccn(CCCC#N)c1.F[B-](F)(F)F [1-butyronitrile-3-methylimidazolium tetrafluoroborate] + CC#N
Conditions	electrical conductivity [S/m]	mass density [kg/m3]	viscosity [mPa·s]
288.15 K, x1 = 0.1004	3.71	951.03	1.783
288.15 K, x1 = 0.2003	2.62	1058.56	5.545
288.15 K, x1 = 0.3013	1.68	1131.24	13.17
288.15 K, x1 = 0.3996	1.05	1179.83	30.38
288.15 K, x1 = 0.4999	0.558	1218.22	72.81
288.15 K, x1 = 0.5996	0.365	1248.27	105.8
288.15 K, x1 = 0.7001	0.28	1271.85	150.9
288.15 K, x1 = 0.8024	0.157	1289.62	287
288.15 K, x1 = 0.8885	0.126	1302.35	372.8
288.15 K, x1 = 1	0.058	1316.07	590.6
293.15 K, x1 = 0.1004	3.98	946.91	1.645
293.15 K, x1 = 0.2003	2.89	1054.28	4.901
293.15 K, x1 = 0.3013	1.93	1126.73	11.15
293.15 K, x1 = 0.3996	1.24	1175.56	24.74
293.15 K, x1 = 0.4999	0.685	1214.12	56.55
293.15 K, x1 = 0.5996	0.467	1244.16	80.64
293.15 K, x1 = 0.7001	0.352	1268.21	113.9
293.15 K, x1 = 0.8024	0.208	1286.11	207.7
293.15 K, x1 = 0.8885	0.174	1298.72	266.5
293.15 K, x1 = 1	0.085	1312.33	417.9
298.15 K, x1 = 0.1004	4.28	942.92	1.52
298.15 K, x1 = 0.2003	3.2	1049.89	4.361
298.15 K, x1 = 0.3013	2.21	1122.41	9.572
298.15 K, x1 = 0.3996	1.46	1171.47	20.18
298.15 K, x1 = 0.4999	0.834	1210.15	45.13
298.15 K, x1 = 0.5996	0.588	1240.19	62.96
298.15 K, x1 = 0.7001	0.47	1264.41	87.6
298.15 K, x1 = 0.8024	0.286	1282.71	154.3
298.15 K, x1 = 0.8885	0.236	1294.92	195.6
298.15 K, x1 = 1	0.123	1308.61	302.6
303.15 K, x1 = 0.1004	4.56	938.82	1.412
303.15 K, x1 = 0.2003	3.51	1045.59	3.908
303.15 K, x1 = 0.3013	2.5	1117.84	8.303
303.15 K, x1 = 0.3996	1.7	1167.21	16.91
303.15 K, x1 = 0.4999	0.997	1205.98	36.59
303.15 K, x1 = 0.5996	0.719	1236.29	50.09
303.15 K, x1 = 0.7001	0.585	1260.73	68.7
303.15 K, x1 = 0.8024	0.372	1279.28	117.1
303.15 K, x1 = 0.8885	0.308	1291.38	147
303.15 K, x1 = 1	0.171	1304.81	223.3
308.15 K, x1 = 0.1004	4.84	934.73	1.315
308.15 K, x1 = 0.2003	3.83	1041.36	3.529
308.15 K, x1 = 0.3013	2.8	1113.43	7.266
308.15 K, x1 = 0.3996	1.97	1163.02	14.47
308.15 K, x1 = 0.4999	1.19	1201.89	30.15
308.15 K, x1 = 0.5996	0.87	1232.29	40.62
308.15 K, x1 = 0.7001	0.719	1257.04	54.9
308.15 K, x1 = 0.8024	0.475	1275.69	90.99
308.15 K, x1 = 0.8885	0.392	1287.73	112.9
308.15 K, x1 = 1	0.231	1301.05	169.9
313.15 K, x1 = 0.1004	5.13	930.78	1.228
313.15 K, x1 = 0.2003	4.16	1037.03	3.204
313.15 K, x1 = 0.3013	3.1	1109.04	6.436
313.15 K, x1 = 0.3996	2.27	1158.93	12.49
313.15 K, x1 = 0.4999	1.4	1197.89	25.23
313.15 K, x1 = 0.5996	1.04	1228.43	33.47
313.15 K, x1 = 0.7001	0.87	1253.43	44.63
313.15 K, x1 = 0.8024	0.599	1272.33	71.79
313.15 K, x1 = 0.8885	0.491	1284.14	88.12
313.15 K, x1 = 1	0.305	1297.32	128.7
318.15 K, x1 = 0.1004	5.41	926.61	1.153
318.15 K, x1 = 0.2003	4.49	1032.73	2.936
318.15 K, x1 = 0.3013	3.4	1104.71	5.741
318.15 K, x1 = 0.3996	2.59	1154.62	10.85
318.15 K, x1 = 0.4999	1.63	1193.83	21.38
318.15 K, x1 = 0.5996	1.22	1224.39	28
318.15 K, x1 = 0.7001	1.04	1249.69	36.82
318.15 K, x1 = 0.8024	0.734	1268.86	57.48
318.15 K, x1 = 0.8885	0.603	1280.51	70.08
318.15 K, x1 = 1	0.393	1293.59	100.6
323.15 K, x1 = 0.1004	5.69	922.4	1.084
323.15 K, x1 = 0.2003	4.82	1028.51	2.695
323.15 K, x1 = 0.3013	3.7	1100.31	5.152
323.15 K, x1 = 0.3996	2.95	1150.56	9.38
323.15 K, x1 = 0.4999	1.87	1189.85	17.96
323.15 K, x1 = 0.5996	1.42	1220.51	23.76
323.15 K, x1 = 0.7001	1.22	1245.99	30.77
323.15 K, x1 = 0.8024	0.872	1265.38	47.05
323.15 K, x1 = 0.8885	0.73	1276.87	56.76
323.15 K, x1 = 1	0.498	1289.86	79.82
